Measured values from patent publication US20210171948A1, “COMPOSITIONS AND METHODS FOR TARGETING GLYPICAN-2 IN THE TREATMENT OF CANCER” (Shepherd Therapeutics, Inc., priority 2019, published 2021).
d = 2'-deoxy (DNA); r = 2'-OH (RNA)

Columns and labels:
[1] = tested on: CHP212 neuroblastoma cell line; experiment: Cell viability after siRNA transfection, 96 hour (Example 4, FIG. 4B); assay type: cell-based; details: 96 hour incubation (FIG. 4B)
Protocol: The extent of GPC2 mRNA reduction was assessed with additional GPC2 siRNA sequences in the CHP212 neuroblastoma cell line. Cells were transfected with either a scrambled control siRNA or with GPC2 siRNA sequences 3 or 5, or with siRNA sequences 6-11 (Sigma) using the RNAiMAX Lipofectamine kit (Invitrogen, Carlsbad, Calif.) as previously described. Following a 96 hour incubation period, total RNA samples were collected and viability was measured in parallel plated cells.

CHLA-90 cells = experiment: Doxorubicin IC50 in siRNA-transfected cells, Cell Titer Glo viability (Example 8); assay type: cell-based
Protocol: (§1) GPC2 mRNA expression was reduced and changes in cell viability were assessed in multiple neuroblastoma cell lines. Cells were transfected with either a control siRNA or with GPC-2 siRNA sequences 3, 5 or 7 from Table 7 using the RNAiMAX Lipofectamine kit (Invitrogen, Carlsbad, Calif.) as previously described in 96 wells for viability assays. Doxorubicin was added at increasing concentrations (0-5 uM) to transfected cells at 24 hours post transfection. Following a 72 hour incubation period, viability measurements were made using Cell Titer Glo.

CHP212 cells [2] = experiment: as above; assay type: cell-based
Protocol: as §1

SH-SY5Y cells = experiment: as above; assay type: cell-based; details: SH-SY5Y cells transfected with the labelled siRNA; doxorubicin added 24 hours post transfection, 72 hour incubation
Protocol: as §1

SK-N-BE2 cells = experiment: as above; assay type: cell-based
Protocol: as §1

RH30 cells = experiment: Cell viability after siRNA transfection, Cell Titer Glo 2.0 (Example 3); assay type: cell-based; details: RH30 (Rhabdomyosarcoma); 96 hour incubation
Protocol: (§2) GPC2 mRNA knockdown and changes in cell viability were assessed in multiple cancer cell lines. Cells were transfected with either a scrambled control siRNA or with GPC2 siRNA sequence 3 or sequence 5 from Table 7 using the RNAiMAX Lipofectamine kit (Invitrogen, Carlsbad, Calif.) as previously described in Example 2, either in 96 well format (for viability assays) or 6 well format (for knockdown assessment). Following a 96 hour incubation period, cells were washed and the viability measurement was assessed using Cell Titer Glo 2.0. Total RNA was isolated from the 6 well plate samples to determine knockdown efficiency.

SNU16 cells = experiment: as above; assay type: cell-based; details: SNU16 (Gastric); 96 hour incubation
Protocol: as §2

SKNAS cells [3] = experiment: as above; assay type: cell-based; details: SKNAS (Neuroblastoma); 96 hour incubation
Protocol: as §2

CHP212 cells [4] = experiment: as above; assay type: cell-based; details: CHP212 (Neuroblastoma); 96 hour incubation
Protocol: as §2

GIST-T1 cells = experiment: as above; assay type: cell-based; details: GIST-T1 (Gastrointestinal Stromal); 96 hour incubation
Protocol: as §2

TC32 cells = experiment: as above; assay type: cell-based; details: TC32 (Ewing's Sarcoma); 96 hour incubation
Protocol: as §2

MCF7 cells = experiment: as above; assay type: cell-based; details: MCF7 (Breast); 96 hour incubation
Protocol: as §2

COV362 cells = experiment: as above; assay type: cell-based; details: COV362 (Ovarian Carcinoma); 96 hour incubation
Protocol: as §2

IMR32 cells = experiment: as above; assay type: cell-based; details: IMR32 (Neuroblastoma); 96 hour incubation
Protocol: as §2

TOV112D cells = experiment: as above; assay type: cell-based; details: TOV112D (Ovarian Carcinoma); 96 hour incubation
Protocol: as §2

RH41 cells = experiment: as above; assay type: cell-based; details: RH41 (Rhabdomyosarcoma); 96 hour incubation
Protocol: as §2

TC71 cells = experiment: as above; assay type: cell-based; details: TC71 (Ewing's Sarcoma); 96 hour incubation
Protocol: as §2

GPC2 mRNA = GPC2 mRNA knockdown in cell lines of the cisplatin experiment (Example 5); assay type: cell-based, human
Protocol: GPC2 mRNA was reduced using the indicated siRNAs and changes in cell viability were assessed in multiple cancer cell lines, in combination with Cisplatin treatment. Cells were transfected with either a scrambled control siRNA or with GPC2 siRNA sequences 3 or 5 from Table 7 using the RNAiMAX Lipofectamine kit (Invitrogen, Carlsbad, Calif.), as previously described, in either in 96 well (for viability assays) or 6 well format (for total RNA). Cisplatin was added at increasing concentrations (0 to 30 uM) to transfected cells at 24 hours post transfection. Following a 72 hour incubation period, cell viability was measured using Cell Titer Glo 2.0. Total RNA samples were also isolated to measure knockdown efficiency.

SKNAS cells [5] = experiment: Cyclophosphamide IC50 in siRNA-transfected cells, Cell Titer Glo 2.0 viability (Example 7); assay type: cell-based
KELLY cells = experiment: as above; assay type: cell-based
CHLA-136 cells = experiment: as above; assay type: cell-based
CHLA-172 cells = experiment: as above; assay type: cell-based

Substance: GPC2 siRNA 5: siRNA duplex: sense CUCAGUAGCCCAGCACUCU[dT][dT] (SEQ ID NO: 211), anti-sense AGAGUGCUGGGCUACUGAG[dT][dT] (SEQ ID NO: 212) (sense CUCAGUAGCCCAGCACUCUTT; antisense AGAGUGCUGGGCUACUGAGTT; sugars from the 5' end r19 d2, backbone not given here; listed as Homo sapiens)
- Viability decrease among sequences 3, 5, 6-11 [1]: greater viability decrease
- Data Summary: effect of knockdown on sensitivity to doxorubicin (CHLA-90 cells; CHLA-90): increases sensitivity to
- IC50 (CHLA-90 cells; CHLA-90 cells transfected with the labelled siRNA, doxorubicin added 24 hours post transfection, 72 hour incubation): 250 nM
- Data Summary: effect of knockdown on sensitivity to doxorubicin (CHP212 cells [2]; CHP212): does not increase sensitivity
- IC50 (CHP212 cells [2]; CHP212 cells transfected with the labelled siRNA, doxorubicin added 24 hours post transfection, 72 hour incubation): 20 nM
- IC50 (SH-SY5Y cells): 50 nM
- Data Summary: effect of knockdown on sensitivity to doxorubicin (SK-N-BE2 cells; SK-N-BE2): increases sensitivity to
- IC50 (SK-N-BE2 cells; SK-N-BE2 cells transfected with the labelled siRNA, doxorubicin added 24 hours post transfection, 72 hour incubation): 20 nM
- % Viability (RH30 cells): 46.03%
- % Viability (SNU16 cells): 89.01%
- % Viability (SKNAS cells [3]): 56.14%
- % Viability (CHP212 cells [4]): 64.46%
- % Viability (GIST-T1 cells): 40.13%
- % Viability (TC32 cells): 77.18%
- % Viability (MCF7 cells): 67.11%
- % Viability (COV362 cells): 94.27%
- % Viability (IMR32 cells): 63.62%
- % Viability (TOV112D cells): 81.15%
- % Viability (RH41 cells): 31.32%
- % Viability (TC71 cells): 100.92%
- % GPC2 knockdown (GPC2 mRNA; CHLA-90 (Neuroblastoma)): 55%
- % GPC2 knockdown (GPC2 mRNA; CHLA-136 (Neuroblastoma)): 35%
- % GPC2 knockdown (GPC2 mRNA; CHLA-172 (Neuroblastoma)): 8%
- % GPC2 knockdown (GPC2 mRNA; CHP212 (Neuroblastoma)): 70%
- % GPC2 knockdown (GPC2 mRNA; COV362 (Ovarian cancer)): 89%
- % GPC2 knockdown (GPC2 mRNA; GIST-T1 (Gastrointestinal Stromal)): 75%
- % GPC2 knockdown (GPC2 mRNA; KELLY (Neuroblastoma)): 75%
- % GPC2 knockdown (GPC2 mRNA; RH30 (Rhabdomyosarcoma)): 86%
- % GPC2 knockdown (GPC2 mRNA; RH41 (Rhabdomyosarcoma)): 70%
- % GPC2 knockdown (GPC2 mRNA; SH-SY5Y (Neuroblastoma)): 75%
- % GPC2 knockdown (GPC2 mRNA; SK-N-BE2 (Neuroblastoma)): 68%
- % GPC2 knockdown (GPC2 mRNA; SKNAS (Neuroblastoma)): 70%
- % GPC2 knockdown (GPC2 mRNA; SNU16 (Gastric carcinoma)): 52%
- % GPC2 knockdown (GPC2 mRNA; TC32 (Ewing's sarcoma)): 75%
- % GPC2 knockdown (GPC2 mRNA; TC71 (Ewing's sarcoma)): 60%
- % GPC2 knockdown (GPC2 mRNA; TOV112D (Ovarian cancer)): 86%
- Data Summary: effect of knockdown on sensitivity to cyclophosphamide (SKNAS cells [5]; SKNAS): increases sensitivity to
- IC50 (SKNAS cells [5]; SKNAS cells transfected with the labelled siRNA, cyclophosphamide added 24 hr post transfection, 72 hour incubation): 480 nM
- Data Summary: effect of knockdown on sensitivity to cyclophosphamide (KELLY cells; KELLY): increases sensitivity to
- IC50 (KELLY cells; KELLY cells transfected with the labelled siRNA, cyclophosphamide added 24 hr post transfection, 72 hour incubation): 1000 nM
- Data Summary: effect of knockdown on sensitivity to cyclophosphamide (CHLA-136 cells; CHLA-136): not increase sensitivity
- IC50 (CHLA-136 cells; CHLA-136 cells transfected with the labelled siRNA, cyclophosphamide added 24 hr post transfection, 72 hour incubation): 5000 nM
- Data Summary: effect of knockdown on sensitivity to cyclophosphamide (CHLA-172 cells; CHLA-172): increases sensitivity to
- IC50 (CHLA-172 cells; CHLA-172 cells transfected with the labelled siRNA, cyclophosphamide added 24 hr post transfection, 72 hour incubation): 10000 nM
